Here are results for 1 compound from US10967078B2, “Radiolabelled mGluR2 PET ligands” (Janssen Pharmaceutica NV, priority 2014, dated 2021).

The target in the test is T1, mGluR2 (Mus musculus, UniProt Q14BI2).
T1 construct: horizontal sections of mGluR2 KO and WT mouse brain and of normal female Wistar rat brain; from tissue; host or cells: mouse brain sections (WT and mGluR2 KO), 20 µm
Kind of test: In vitro autoradiography binding on mGluR2 KO and WT mouse brain sections. On the procedure: In vitro autoradiography studies were performed on horizontal sections of mGluR2 KO and WT mouse brain and of normal female Wistar rat brain (20 μm). The sections were preincubated in 50 mM Tris-HCl (MgCl2 2 mM, CaCl2 2 mM; pH 7.0) for 10 min (two times) at room temperature and dried. Next, the brain sections were incubated with tracer [^11C]-2, [^11C]-5, [^11C]-4, [^11C]-1 or [^18F]-3 diluted in the same Tris-HCl buffer as used for the preincubation additionally containing 0.1% BSA or with this tracer solution in the presence of 10 μM Co. No. 2 or Co. No. 1. The mouse brain sections were incubated with 17 kBq of carbon-11 labeled tracer and 1.7 kBq of fluorine-18 labeled tracer. For the rat brain sections this was 44 kBq of carbon-11 labeled tracer and 0.44 kBq of fluorine-18 labeled tracer. After 30 min of incubation, the brain sections were washed three times for 5 min in ice-cold Tris-HCl 50 mM ((MgCl2 2 mM, CaCl2 2 mM; pH 7.0+0.1% BSA buffer). After a quick dip in purified ice-cold water, the slides were dried. Autoradiograms were obtained by exposing the slides overnight to a high-performance phosphor storage screen (super-resolution screen; Perkin Elmer, Waltham, USA). The screens were read using a Cyclone Plus system (Perkin Elmer) and analysed using Optiquant software (Perkin Elmer). The radioactivity concentration in the autoradiograms was expressed in digital light units (DLU)/mm^2.
To obtain additional information on the specificity of the tracer binding to mGluR2, in vitro autoradiography binding studies were performed on mGluR2 KO and WT mouse brain sections and on normal rat brain sections in presence or absence of a high concentration of mGluR2 NAM compounds (Co. No. 1 or Co. No. 2).

Where [1] appears, read: WT mouse cortex, block with 10 μM Co. No. 1.
The mark [2] stands for this setting: WT mouse striatum, block with 10 μM Co. No. 1.

Each structure is given as a SMILES string.

T1 sequence (Q14BI2 19-872): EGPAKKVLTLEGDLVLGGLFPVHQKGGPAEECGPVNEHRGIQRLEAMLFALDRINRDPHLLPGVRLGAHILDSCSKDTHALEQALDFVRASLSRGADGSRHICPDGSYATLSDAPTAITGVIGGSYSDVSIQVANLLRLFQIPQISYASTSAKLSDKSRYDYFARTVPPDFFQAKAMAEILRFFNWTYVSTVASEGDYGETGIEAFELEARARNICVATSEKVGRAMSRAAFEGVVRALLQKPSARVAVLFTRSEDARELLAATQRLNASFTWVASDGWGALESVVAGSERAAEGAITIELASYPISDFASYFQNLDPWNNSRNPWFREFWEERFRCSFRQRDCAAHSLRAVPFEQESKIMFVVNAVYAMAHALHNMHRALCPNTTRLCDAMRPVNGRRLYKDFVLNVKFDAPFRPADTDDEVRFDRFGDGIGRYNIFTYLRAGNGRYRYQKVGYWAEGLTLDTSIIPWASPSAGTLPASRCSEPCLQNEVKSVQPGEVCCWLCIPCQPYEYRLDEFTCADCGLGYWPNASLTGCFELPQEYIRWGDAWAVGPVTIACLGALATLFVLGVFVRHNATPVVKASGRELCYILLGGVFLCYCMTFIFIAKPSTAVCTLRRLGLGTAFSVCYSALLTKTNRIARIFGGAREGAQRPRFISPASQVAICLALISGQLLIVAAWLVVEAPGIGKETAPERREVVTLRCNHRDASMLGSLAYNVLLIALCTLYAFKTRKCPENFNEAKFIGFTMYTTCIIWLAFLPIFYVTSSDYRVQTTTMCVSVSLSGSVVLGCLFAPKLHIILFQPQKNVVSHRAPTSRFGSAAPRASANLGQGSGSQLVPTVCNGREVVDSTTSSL

`C[C@H]1CN(c2ccc(C(F)(F)F)cc2)C(=O)c2c(-c3ccnc(N[11CH3])c3)cnn21` [[^11C]-2]: under setting [1], the “Cortex WT (TB)/cortex WT (block Co. No. 1)” value is ~6.7 and the “spec binding, cortex WT” value was “(~85% spec”. In addition, under setting [2], the “Striatum WT (TB)/striatum WT (block Co. No. 1)” value is on record as ~8.3 and the “spec binding, striatum WT” value was “(~88% spec”. The “difference in tracer binding to WT and mGluR2 KO mouse brain sections” value (in words) is “significant difference”. Moreover, under “total binding ratio, WT versus mGluR2 KO mouse brain sections, cortex”, the “Cortex WT (TB)/Cortex KO (TB)” value is ~8.1. Further, under “total binding ratio, WT versus mGluR2 KO mouse brain sections, striatum”, the “Striatum WT (TB)/Striatum KO (TB)” value is listed as ~4.8.
